From the NIST ThermoML archive (doi:10.1021/je2008582)

Conditions: Liquid, Vibrating tube method

CCCCC/C=C\C/C=C\CCCCCCCC(=O)OC [methyl (Z,Z)-9,12-octadecadienate]
Conditions | mass density [kg/m3]
270 K, 490 kPa | 904.6
270 K, 990 kPa | 904.9
270 K, 1990 kPa | 905.4
270 K, 3000 kPa | 905.9
270 K, 3990 kPa | 906.5
270 K, 5000 kPa | 907
270 K, 10000 kPa | 909.6
270 K, 20000 kPa | 914.6
270 K, 29990 kPa | 919.3
270 K, 39990 kPa | 923.8
270 K, 49970 kPa | 928.2
290 K, 500 kPa | 889.7
290 K, 990 kPa | 890
290 K, 1990 kPa | 890.6
290 K, 2990 kPa | 891.2
290 K, 3990 kPa | 891.8
290 K, 5000 kPa | 892.4
290 K, 9990 kPa | 895.2
290 K, 19990 kPa | 900.7
290 K, 30000 kPa | 905.8
290 K, 39990 kPa | 910.7
290 K, 49970 kPa | 915.3
310 K, 500 kPa | 875.1
310 K, 1000 kPa | 875.4
310 K, 1990 kPa | 876.1
310 K, 2990 kPa | 876.7
310 K, 3990 kPa | 877.4
310 K, 4990 kPa | 878
310 K, 9990 kPa | 881.1
310 K, 20000 kPa | 887
310 K, 30000 kPa | 892.5
310 K, 39990 kPa | 897.8
310 K, 49990 kPa | 902.8
330 K, 490 kPa | 860.6
330 K, 990 kPa | 860.9
330 K, 1990 kPa | 861.6
330 K, 2990 kPa | 862.4
330 K, 3990 kPa | 863.1
330 K, 4990 kPa | 863.8
330 K, 9990 kPa | 867.1
330 K, 19990 kPa | 873.5
330 K, 29980 kPa | 879.5
330 K, 39990 kPa | 885.1
330 K, 50000 kPa | 890.4
350 K, 500 kPa | 846.2
350 K, 1000 kPa | 846.6
350 K, 1990 kPa | 847.4
350 K, 2990 kPa | 848.2
350 K, 3990 kPa | 848.9
350 K, 5000 kPa | 849.7
350 K, 9990 kPa | 853.4
350 K, 19990 kPa | 860.3
350 K, 29990 kPa | 866.7
350 K, 40000 kPa | 872.7
350 K, 49980 kPa | 878.4
370 K, 490 kPa | 831.6
370 K, 990 kPa | 832.1
370 K, 1990 kPa | 832.9
370 K, 2990 kPa | 833.8
370 K, 4000 kPa | 834.6
370 K, 5000 kPa | 835.5
370 K, 10000 kPa | 839.5
370 K, 19990 kPa | 847
370 K, 29990 kPa | 854
370 K, 39990 kPa | 860.4
370 K, 49980 kPa | 866.4
390 K, 490 kPa | 817.1
390 K, 990 kPa | 817.6
390 K, 1990 kPa | 818.5
390 K, 3000 kPa | 819.5
390 K, 3990 kPa | 820.4
390 K, 4990 kPa | 821.3
390 K, 9990 kPa | 825.8
390 K, 20000 kPa | 834
390 K, 29990 kPa | 841.4
390 K, 40000 kPa | 848.3
390 K, 49990 kPa | 854.7
410 K, 490 kPa | 802.5
410 K, 1000 kPa | 803
410 K, 2000 kPa | 804.1
410 K, 2990 kPa | 805.1
410 K, 3990 kPa | 806.2
410 K, 4990 kPa | 807.2
410 K, 9990 kPa | 812.1
410 K, 19990 kPa | 821
410 K, 29990 kPa | 829.1
410 K, 40000 kPa | 836.5
410 K, 49970 kPa | 843.3
430 K, 490 kPa | 787.5
430 K, 1000 kPa | 788.1
430 K, 1990 kPa | 789.3
430 K, 2990 kPa | 790.5
430 K, 3990 kPa | 791.6
430 K, 5000 kPa | 792.7
430 K, 9990 kPa | 798.1
430 K, 19990 kPa | 807.9
430 K, 29990 kPa | 816.6
430 K, 40000 kPa | 824.5
430 K, 50010 kPa | 831.8
450 K, 490 kPa | 772.5
450 K, 990 kPa | 773.2
450 K, 2000 kPa | 774.5
450 K, 2990 kPa | 775.8
450 K, 4000 kPa | 777.1
450 K, 4990 kPa | 778.3
450 K, 10000 kPa | 784.3
450 K, 19990 kPa | 794.9
450 K, 30000 kPa | 804.3
450 K, 39990 kPa | 812.8
450 K, 49980 kPa | 820.6
470 K, 500 kPa | 757.5
470 K, 990 kPa | 758.3
470 K, 1990 kPa | 759.7
470 K, 3000 kPa | 761.2
470 K, 3990 kPa | 762.6
470 K, 4990 kPa | 764
470 K, 9990 kPa | 770.6
470 K, 19990 kPa | 782.2
470 K, 29990 kPa | 792.4
470 K, 39990 kPa | 801.5
470 K, 49980 kPa | 809.7
